Measurements from PubChem BioAssay (NCI).
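1) Cells in 96-well plates. 2) Compound, 48 h, 5 concentrations. 3) Linear interpolation between surrounding doses. 4) Unreached endpoint = highest concentration. TGI denotes the concentration required for complete inhibition of growth.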

The molecules below were run on NCI/ADR-RES ovarian (assay: DTP human tumour cell line panel, 48 h).

Row | SMILES | TGI
1 | O=[N+]([O-])c1cccc2nccc(NCCN3CCOCC3)c12 | > 100 µM
2 | O=C1NC(N/N=C\c2ccccc2)=N/C1=C/c1ccccc1 | 85.9 µM
3 | Cc1ccc(S(=O)(=O)N2CCNCCN(S(=O)(=O)c3ccc(C)cc3)CCNCC2)cc1 | > 100 µM
4 | CN=c1sc2nc(C#N)c(C#N)nc2n1C | 59.1 µM

The molecules below were run on OVCAR-8 ovarian (assay: DTP human tumour cell line panel, 48 h).

Row | SMILES | TGI
5 | C=C1C(=O)O[C@H]2C1C[C@H](O)[C@@]1(C)OC1CC[C@@]1(C)O[C@H]21 (stereo partly drawn) | 39.6 µM
6 | O=C(NCCNCCNC(=O)c1cc(-c2ccccc2)nc2ccccc12)c1cc(-c2ccccc2)nc2ccccc12 | 4.54 µM
7 | CC1=NN(c2nc(N)nc(/C(C#N)=C\c3ccc(-c4ccc([N+](=O)[O-])cc4)o3)n2)C(C)(C)C1 | > 100 µM
8 | CCOC(=O)c1nc2ccc(C(F)(F)F)cc2nc1Nc1ccc(OC)cc1 | > 100 µM
9 | COc1ccc2nc3ccc(OC)cc3c(SCCCl)c2c1 | > 35.2 µM
10 | CCOC(=O)C(=CNc1ccc(F)c(F)c1)C(=O)OCC | > 100 µM
11 | CC(Oc1ccccc1Cl)C(=O)NN1C(=O)CC(=O)N(c2ccc(Cl)cc2)C1=S (stereo not drawn) | > 100 µM
12 | CC(C)(O)c1cc2c(cc1C(C)(C)O)-c1ccccc1-2 | > 100 µM
13 | CC(C)[Si]1(C(C)C)OCC2OC(n3ccc(=O)[nH]c3=O)C([Se]c3ccccc3)C2O[Si](C(C)C)(C(C)C)O1 (stereo not drawn) | 10.7 µM
14 | CN(N=O)c1nc2c(C(N)=O)ncn2s1 | > 100 µM
15 | CC(Oc1ccc(Cl)cc1Cl)C(=O)NN1C(=O)CC(=O)N(c2ccccc2)C1=S (stereo not drawn) | > 100 µM
16 | CC(C)(C)OC(=O)N1CCCC1C(=O)NC(c1ccccc1)c1ccccc1 (stereo not drawn) | > 100 µM
17 | Cc1[nH]c(-c2ccccc2)c2nc(N(C)C)oc(=O)c12 | > 100 µM
18 | O=C1Cc2cn[nH]c2-c2ccccc2N1 | > 100 µM
19 | O=CNc1ccccc1OCCOc1ccccc1NC=O | > 100 µM
20 | CCOC(=O)c1c[nH]c(C(=O)C=[N+]=[N-])c1C1CCN(CC)C1=S (stereo not drawn) | > 100 µM
21 | Cc1ccc2nc(NS(=O)(=O)c3cc(C)c(Cl)cc3S)[nH]c2c1 | > 100 µM
22 | O=C1CSC(c2ccccc2O)N1c1ccc(-n2c(-c3ccccc3)nc3ccccc3c2=O)cc1 (stereo not drawn) | > 100 µM
23 | Cc1ccc(C(=O)Oc2ccccc2)cc1N=NN(C)C | > 100 µM
24 | O=C1NC2(CCNCC2)Oc2ccccc21 | > 100 µM
25 | O=[N+]([O-])c1cccc2nccc(NCCN3CCOCC3)c12 | > 54.2 µM
26 | O=C1NC(N/N=C\c2ccccc2)=N/C1=C/c1ccccc1 | > 100 µM
27 | Cc1ccc(S(=O)(=O)N2CCNCCN(S(=O)(=O)c3ccc(C)cc3)CCNCC2)cc1 | 36.9 µM

These molecules were tested on 786-0 renal (assay: DTP human tumour cell line panel, 48 h).

Row | SMILES | TGI
28 | C=C1C(=O)O[C@H]2C1C[C@H](O)[C@@]1(C)OC1CC[C@@]1(C)O[C@H]21 (stereo partly drawn) | 37.1 µM
29 | O=C(NCCNCCNC(=O)c1cc(-c2ccccc2)nc2ccccc12)c1cc(-c2ccccc2)nc2ccccc12 | 3.39 µM
30 | CC1=NN(c2nc(N)nc(/C(C#N)=C\c3ccc(-c4ccc([N+](=O)[O-])cc4)o3)n2)C(C)(C)C1 | > 100 µM
31 | CCOC(=O)c1nc2ccc(C(F)(F)F)cc2nc1Nc1ccc(OC)cc1 | > 100 µM
32 | COc1ccc2nc3ccc(OC)cc3c(SCCCl)c2c1 | 30.1 µM
33 | CCOC(=O)C(=CNc1ccc(F)c(F)c1)C(=O)OCC | > 100 µM
34 | CC(Oc1ccccc1Cl)C(=O)NN1C(=O)CC(=O)N(c2ccc(Cl)cc2)C1=S (stereo not drawn) | > 100 µM
35 | CC(C)(O)c1cc2c(cc1C(C)(C)O)-c1ccccc1-2 | > 100 µM
36 | CC(C)[Si]1(C(C)C)OCC2OC(n3ccc(=O)[nH]c3=O)C([Se]c3ccccc3)C2O[Si](C(C)C)(C(C)C)O1 (stereo not drawn) | 7.77 µM
37 | CN(N=O)c1nc2c(C(N)=O)ncn2s1 | > 100 µM
38 | CC(Oc1ccc(Cl)cc1Cl)C(=O)NN1C(=O)CC(=O)N(c2ccccc2)C1=S (stereo not drawn) | > 100 µM
39 | CC(C)(C)OC(=O)N1CCCC1C(=O)NC(c1ccccc1)c1ccccc1 (stereo not drawn) | > 100 µM
40 | Cc1[nH]c(-c2ccccc2)c2nc(N(C)C)oc(=O)c12 | > 100 µM
41 | O=C1Cc2cn[nH]c2-c2ccccc2N1 | > 100 µM
42 | O=CNc1ccccc1OCCOc1ccccc1NC=O | > 100 µM
43 | CCOC(=O)c1c[nH]c(C(=O)C=[N+]=[N-])c1C1CCN(CC)C1=S (stereo not drawn) | > 100 µM
44 | Cc1ccc2nc(NS(=O)(=O)c3cc(C)c(Cl)cc3S)[nH]c2c1 | > 100 µM
45 | O=C1CSC(c2ccccc2O)N1c1ccc(-n2c(-c3ccccc3)nc3ccccc3c2=O)cc1 (stereo not drawn) | > 100 µM
46 | Cc1ccc(C(=O)Oc2ccccc2)cc1N=NN(C)C | > 100 µM
47 | O=C1NC2(CCNCC2)Oc2ccccc21 | > 100 µM
48 | O=[N+]([O-])c1cccc2nccc(NCCN3CCOCC3)c12 | > 57.5 µM
49 | O=C1NC(N/N=C\c2ccccc2)=N/C1=C/c1ccccc1 | > 100 µM
50 | Cc1ccc(S(=O)(=O)N2CCNCCN(S(=O)(=O)c3ccc(C)cc3)CCNCC2)cc1 | 33.7 µM
51 | CN=c1sc2nc(C#N)c(C#N)nc2n1C | > 60 µM

Each molecule was assayed on K-562 leukemia (assay: DTP human tumour cell line panel, 48 h).

Row | SMILES | TGI
52 | C=C1C(=O)O[C@H]2C1C[C@H](O)[C@@]1(C)OC1CC[C@@]1(C)O[C@H]21 (stereo partly drawn) | 19.7 µM
53 | O=C(NCCNCCNC(=O)c1cc(-c2ccccc2)nc2ccccc12)c1cc(-c2ccccc2)nc2ccccc12 | 3.99 µM
54 | CC1=NN(c2nc(N)nc(/C(C#N)=C\c3ccc(-c4ccc([N+](=O)[O-])cc4)o3)n2)C(C)(C)C1 | > 100 µM
55 | CCOC(=O)c1nc2ccc(C(F)(F)F)cc2nc1Nc1ccc(OC)cc1 | > 100 µM
56 | COc1ccc2nc3ccc(OC)cc3c(SCCCl)c2c1 | > 46.5 µM
57 | CCOC(=O)C(=CNc1ccc(F)c(F)c1)C(=O)OCC | > 100 µM
58 | CC(Oc1ccccc1Cl)C(=O)NN1C(=O)CC(=O)N(c2ccc(Cl)cc2)C1=S (stereo not drawn) | > 100 µM
59 | CC(C)(O)c1cc2c(cc1C(C)(C)O)-c1ccccc1-2 | > 100 µM
60 | CN(N=O)c1nc2c(C(N)=O)ncn2s1 | > 100 µM
61 | CC(Oc1ccc(Cl)cc1Cl)C(=O)NN1C(=O)CC(=O)N(c2ccccc2)C1=S (stereo not drawn) | > 100 µM
62 | CC(C)(C)OC(=O)N1CCCC1C(=O)NC(c1ccccc1)c1ccccc1 (stereo not drawn) | > 100 µM
63 | Cc1[nH]c(-c2ccccc2)c2nc(N(C)C)oc(=O)c12 | > 100 µM
64 | O=C1Cc2cn[nH]c2-c2ccccc2N1 | 56.6 µM
65 | O=CNc1ccccc1OCCOc1ccccc1NC=O | > 100 µM
66 | CCOC(=O)c1c[nH]c(C(=O)C=[N+]=[N-])c1C1CCN(CC)C1=S (stereo not drawn) | > 100 µM
67 | Cc1ccc2nc(NS(=O)(=O)c3cc(C)c(Cl)cc3S)[nH]c2c1 | > 100 µM
68 | O=C1CSC(c2ccccc2O)N1c1ccc(-n2c(-c3ccccc3)nc3ccccc3c2=O)cc1 (stereo not drawn) | > 100 µM
69 | Cc1ccc(C(=O)Oc2ccccc2)cc1N=NN(C)C | > 100 µM
70 | O=C1NC2(CCNCC2)Oc2ccccc21 | > 100 µM
71 | O=[N+]([O-])c1cccc2nccc(NCCN3CCOCC3)c12 | > 56.7 µM
72 | O=C1NC(N/N=C\c2ccccc2)=N/C1=C/c1ccccc1 | > 100 µM
73 | Cc1ccc(S(=O)(=O)N2CCNCCN(S(=O)(=O)c3ccc(C)cc3)CCNCC2)cc1 | 31.4 µM
74 | CN=c1sc2nc(C#N)c(C#N)nc2n1C | > 60 µM

What follows are molecules tested on HS 578T breast (assay: DTP human tumour cell line panel, 48 h).

Row | SMILES | TGI
75 | C=C1C(=O)O[C@H]2C1C[C@H](O)[C@@]1(C)OC1CC[C@@]1(C)O[C@H]21 (stereo partly drawn) | > 100 µM
76 | O=C(NCCNCCNC(=O)c1cc(-c2ccccc2)nc2ccccc12)c1cc(-c2ccccc2)nc2ccccc12 | 6.86 µM
77 | CC1=NN(c2nc(N)nc(/C(C#N)=C\c3ccc(-c4ccc([N+](=O)[O-])cc4)o3)n2)C(C)(C)C1 | > 100 µM
78 | CCOC(=O)c1nc2ccc(C(F)(F)F)cc2nc1Nc1ccc(OC)cc1 | > 100 µM
79 | COc1ccc2nc3ccc(OC)cc3c(SCCCl)c2c1 | > 100 µM
80 | CCOC(=O)C(=CNc1ccc(F)c(F)c1)C(=O)OCC | > 100 µM
81 | CC(Oc1ccccc1Cl)C(=O)NN1C(=O)CC(=O)N(c2ccc(Cl)cc2)C1=S (stereo not drawn) | > 100 µM
82 | CC(C)(O)c1cc2c(cc1C(C)(C)O)-c1ccccc1-2 | > 100 µM
83 | CC(C)[Si]1(C(C)C)OCC2OC(n3ccc(=O)[nH]c3=O)C([Se]c3ccccc3)C2O[Si](C(C)C)(C(C)C)O1 (stereo not drawn) | 5.46 µM
84 | CN(N=O)c1nc2c(C(N)=O)ncn2s1 | > 100 µM
85 | CC(Oc1ccc(Cl)cc1Cl)C(=O)NN1C(=O)CC(=O)N(c2ccccc2)C1=S (stereo not drawn) | > 100 µM
86 | CC(C)(C)OC(=O)N1CCCC1C(=O)NC(c1ccccc1)c1ccccc1 (stereo not drawn) | > 100 µM
87 | Cc1[nH]c(-c2ccccc2)c2nc(N(C)C)oc(=O)c12 | > 100 µM
88 | O=C1Cc2cn[nH]c2-c2ccccc2N1 | > 100 µM
89 | O=CNc1ccccc1OCCOc1ccccc1NC=O | > 100 µM
90 | CCOC(=O)c1c[nH]c(C(=O)C=[N+]=[N-])c1C1CCN(CC)C1=S (stereo not drawn) | > 100 µM
91 | Cc1ccc2nc(NS(=O)(=O)c3cc(C)c(Cl)cc3S)[nH]c2c1 | > 100 µM
92 | O=C1CSC(c2ccccc2O)N1c1ccc(-n2c(-c3ccccc3)nc3ccccc3c2=O)cc1 (stereo not drawn) | > 100 µM
93 | Cc1ccc(C(=O)Oc2ccccc2)cc1N=NN(C)C | > 100 µM
94 | O=C1NC2(CCNCC2)Oc2ccccc21 | > 100 µM
95 | O=[N+]([O-])c1cccc2nccc(NCCN3CCOCC3)c12 | 57.6 µM
96 | O=C1NC(N/N=C\c2ccccc2)=N/C1=C/c1ccccc1 | 80.7 µM
97 | Cc1ccc(S(=O)(=O)N2CCNCCN(S(=O)(=O)c3ccc(C)cc3)CCNCC2)cc1 | 35.7 µM
98 | CN=c1sc2nc(C#N)c(C#N)nc2n1C | > 100 µM

The molecules below were run on OVCAR-4 ovarian (assay: DTP human tumour cell line panel, 48 h).

Row | SMILES | TGI
99 | C=C1C(=O)O[C@H]2C1C[C@H](O)[C@@]1(C)OC1CC[C@@]1(C)O[C@H]21 (stereo partly drawn) | 29.6 µM
100 | O=C(NCCNCCNC(=O)c1cc(-c2ccccc2)nc2ccccc12)c1cc(-c2ccccc2)nc2ccccc12 | 5.98 µM
101 | CC1=NN(c2nc(N)nc(/C(C#N)=C\c3ccc(-c4ccc([N+](=O)[O-])cc4)o3)n2)C(C)(C)C1 | > 100 µM
102 | CCOC(=O)c1nc2ccc(C(F)(F)F)cc2nc1Nc1ccc(OC)cc1 | 49.1 µM
103 | COc1ccc2nc3ccc(OC)cc3c(SCCCl)c2c1 | > 85 µM
104 | CCOC(=O)C(=CNc1ccc(F)c(F)c1)C(=O)OCC | > 100 µM
105 | CC(Oc1ccccc1Cl)C(=O)NN1C(=O)CC(=O)N(c2ccc(Cl)cc2)C1=S (stereo not drawn) | > 100 µM
106 | CC(C)(O)c1cc2c(cc1C(C)(C)O)-c1ccccc1-2 | > 100 µM
107 | CC(C)[Si]1(C(C)C)OCC2OC(n3ccc(=O)[nH]c3=O)C([Se]c3ccccc3)C2O[Si](C(C)C)(C(C)C)O1 (stereo not drawn) | 9.67 µM
108 | CN(N=O)c1nc2c(C(N)=O)ncn2s1 | > 100 µM
109 | CC(Oc1ccc(Cl)cc1Cl)C(=O)NN1C(=O)CC(=O)N(c2ccccc2)C1=S (stereo not drawn) | > 100 µM
110 | CC(C)(C)OC(=O)N1CCCC1C(=O)NC(c1ccccc1)c1ccccc1 (stereo not drawn) | > 100 µM
111 | Cc1[nH]c(-c2ccccc2)c2nc(N(C)C)oc(=O)c12 | > 100 µM
112 | O=C1Cc2cn[nH]c2-c2ccccc2N1 | > 75.1 µM
113 | O=CNc1ccccc1OCCOc1ccccc1NC=O | > 100 µM
114 | CCOC(=O)c1c[nH]c(C(=O)C=[N+]=[N-])c1C1CCN(CC)C1=S (stereo not drawn) | > 100 µM
115 | Cc1ccc2nc(NS(=O)(=O)c3cc(C)c(Cl)cc3S)[nH]c2c1 | > 100 µM
116 | O=C1CSC(c2ccccc2O)N1c1ccc(-n2c(-c3ccccc3)nc3ccccc3c2=O)cc1 (stereo not drawn) | > 100 µM
117 | Cc1ccc(C(=O)Oc2ccccc2)cc1N=NN(C)C | > 100 µM
118 | O=C1NC2(CCNCC2)Oc2ccccc21 | > 100 µM
